{"source": "patent US20080039392A1", "about": "“CRAC channel and modulator screening methods” (THE REGENTS OF THE UNIVERSITY OF CALIFORNIA, priority 2006, published 2008)", "key": {"[1]": {"system": "Stim-Orai protein interaction", "test": "Co-immunoprecipitation of Stim and Orai", "format": "cell-based, Drosophila", "conditions": "Ca2+ store depletion, 1 μM TG 15 min", "protocol": "Two days after transfection, 5×10^6 cells were treated with either Ringer or zero-Ca^2+ Ringer+1 μM TG using solutions described^6 for 15 min at room temperature. Cells transfected with Stim-V5-His only or HA-olf186-F only were used as controls. Cell extracts were then prepared using RIPA lysis buffer (Upstate) according to manufacturer instructions. The extracts were pre-cleared with protein A/G beads (Pierce) and protein concentration was determined, using the Pierce BCA Protein Reagent Kit. The cell lysate was then diluted to approximately 1 mg/ml total protein with PBS and mixed with either anti-HA monoclonal antibodies (1 μg/100 μg total protein, Santa Cruz) or anti-V5 monoclonal antibodies (1 μg/100 μg total protein, Invitrogen) for 4 hr at 4° C. Equal amount of samples were mixed with either normal mouse IgG or vehicle as negative controls. Protein A/G beads were subsequently added (1 μl/1 μg IgG) to rock overnight at 4° C. Proteins were eluted by boiling in 4× sample buffer (Invitrogen). Samples were resolved by SDS-PAGE and analyzed by standard western blotting techniques. Anti-HA monoclonal antibodies (Santa Cruz) were used at a dilution of 1:200. Anti-V5 monoclonal antibodies (Invitrogen) were used at a dilution of 1:2500. Proteins were detected by developing with the SuperSignal (Pierce) detection system."}, "[2]": {"system": "CRAC current in olf186-F+Stim transfected S2 cells", "test": "Whole-cell recording of CRAC current in S2 cells co-transfected with olf186-F (WT Orai) + Stim", "format": "cell-based, Drosophila", "conditions": "for CRAC current density: at −130 mV, high-Ca2+ pipette solution, 10 μM IP3 in pipette or TG in bath", "protocol": "Whole-cell recording. Patch-clamp experiments were performed at room temperature in the standard whole-cell recording configuration. The membrane capacitance (a measure of cell surface area) of S2 cells selected for recording was 9.15±0.27 pF (mean ±SEM, n=287 cells, 22 experiments). To calculate current densities, peak current amplitudes were divided by membrane capacitance for each cell.\n(§1) Cells transfected (Amaxa) with Orai and Stim constructs were identified by fluorescence of co-transfected GFP. Patch clamp experiments were performed at room temperature in the standard whole-cell recording, using conditions similar to those reported previously^10. The membrane capacitance of S2 cells selected for recording was 11.6±0.4 pF (n=131 cells). Membrane potentials were corrected for a liquid junction potential of 10 mV between the pipette and bath solution. The series resistance (2-7 MΩ) was not compensated. The membrane potential was held at −10 mV, and 220-ms voltage ramps from −130 to 90 mV alternating with 220-ms pulses to −130 mV were delivered every 2 s. Only cells with high input (>2 GΩ) were selected for recording. External and pipette solution recipes are listed in supplementary table 1. Analyzed data are presented as mean ±SEM.\n(§2) Data were analyzed by Pulse (Heka Electronics) and Origin (OriginLab Corp.). Five I-V curves were averaged for display. […] Since almost all S2 cells at the moment of break-in display an outward current that disappears during perfusion with internal solution (but before the inward CRAC current starts to develop), the following procedure for leak subtraction was employed. The first three ramp currents after the outward current subsided were averaged (Imid). Then, another set of three ramps after maximal inward CRAC current had developed were averaged (Imax). The difference between Imax and Imid represents an isolated CRAC current but with amplitude less than the actual one. To correct this the difference was scaled such that the value of current at −130 mV is equal to maximal inward current minus initial inward current. Then the scaled difference was subtracted from Imax followed by fitting with a polynomial function. This fit was considered as the basal leak current. […] In this case a linear I-V curve reversing at 0 mV with current magnitude at +90 mV equal to the sustained outward current was assigned as leak current. For E180D Orai-induced CRAC current, the initial current was considered as leak."}, "[3]": {"biological_target": "T1, D184A, D186A, N188A Orai mutants + Stim (Drosophila melanogaster, UniProt Q9U6B8, N186A)", "T1 construct": "A cDNA clone, pAc5.1/olf186-F, encoding full-length Drosophila olf186-F-RB; expressed in transfected cells; host or cells: Drosophila S2 cells (Invitrogen)", "T1 sequence (P83094 24-570)": "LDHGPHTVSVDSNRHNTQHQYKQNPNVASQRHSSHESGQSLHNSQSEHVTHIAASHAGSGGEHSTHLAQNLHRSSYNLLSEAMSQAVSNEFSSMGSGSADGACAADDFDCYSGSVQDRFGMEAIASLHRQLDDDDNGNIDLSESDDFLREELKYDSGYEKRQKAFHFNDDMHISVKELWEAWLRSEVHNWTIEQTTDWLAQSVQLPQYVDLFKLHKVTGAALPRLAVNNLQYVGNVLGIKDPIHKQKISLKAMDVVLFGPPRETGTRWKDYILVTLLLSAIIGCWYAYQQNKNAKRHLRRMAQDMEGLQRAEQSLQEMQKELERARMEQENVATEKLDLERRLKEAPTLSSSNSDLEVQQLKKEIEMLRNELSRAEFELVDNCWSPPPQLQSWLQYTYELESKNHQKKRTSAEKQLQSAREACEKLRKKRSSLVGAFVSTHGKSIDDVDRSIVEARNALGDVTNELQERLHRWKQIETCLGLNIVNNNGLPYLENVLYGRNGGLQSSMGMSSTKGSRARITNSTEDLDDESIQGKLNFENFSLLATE", "T1 sequence (Q9U6B8 whole entry N186A)": "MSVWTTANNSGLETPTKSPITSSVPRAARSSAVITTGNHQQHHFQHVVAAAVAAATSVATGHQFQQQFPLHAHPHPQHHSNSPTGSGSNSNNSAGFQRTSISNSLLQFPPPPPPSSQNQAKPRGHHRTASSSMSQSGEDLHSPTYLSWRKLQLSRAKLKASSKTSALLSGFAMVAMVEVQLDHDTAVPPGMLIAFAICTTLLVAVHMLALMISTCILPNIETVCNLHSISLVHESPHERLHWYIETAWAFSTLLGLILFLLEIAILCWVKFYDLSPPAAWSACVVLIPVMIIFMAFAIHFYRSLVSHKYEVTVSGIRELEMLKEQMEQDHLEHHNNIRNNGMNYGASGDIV", "test": "Whole-cell recording of CRAC current of charge-neutralizing Orai mutants, block by Gd3+", "format": "cell-based", "conditions": "N188A Orai", "excerpt": "(§3) Generation of pAc5.1/EGFP, pAc5.1/D-STIM, pAc5.1/D-STIM-V5-His and pAc5.1/olf186-F (GenBank accession number DQ503470) were as described^5. olf186-F pore mutants were made by exchanging the corresponding codons (E180A: GAG to GCG; E180D: GAG to GAC; D184A: GAT to GCT; D186A: GAT to GCT; N188A: AAT to GCT; FIG. 14) using the QuikChange site-directed mutagenesis kit (Stratagene). The pAc5.1/HA-olf186-F clone was made by adding the HA tag via PCR and re-cloned into the XhoI and NotI sites of pAc5.1/V5-His B expression vector. Resulting clones were confirmed by sequencing. Description of the primers and conditions for cloning is available upon request. Both HA-olf186-F and Stim-V5-His were verified for normal function by whole-cell recording.\nas §1"}, "[4]": {"biological_target": "T2, D184A, D186A, N188A Orai mutants + Stim (Drosophila melanogaster, UniProt Q9U6B8, D184A)", "T2 construct": "A cDNA clone, pAc5.1/olf186-F, encoding full-length Drosophila olf186-F-RB; expressed in transfected cells; host or cells: Drosophila S2 cells (Invitrogen)", "T2 sequence (P83094 24-570)": "as the sequence (P83094 24-570) above", "T2 sequence (Q9U6B8 whole entry D184A)": "as the sequence (Q9U6B8 whole entry N186A) above, with D184A, A186N counted along it", "test": "Whole-cell recording of CRAC current of charge-neutralizing Orai mutants, block by Gd3+", "format": "cell-based", "conditions": "D186A Orai", "excerpt": "as §3, §1"}, "[5]": {"biological_target": "T3, D184A, D186A, N188A Orai mutants + Stim (Drosophila melanogaster, UniProt Q9U6B8, D182A)", "T3 construct": "A cDNA clone, pAc5.1/olf186-F, encoding full-length Drosophila olf186-F-RB; expressed in transfected cells; host or cells: Drosophila S2 cells (Invitrogen)", "T3 sequence (P83094 24-570)": "as the sequence (P83094 24-570) above", "T3 sequence (Q9U6B8 whole entry D182A)": "as the sequence (Q9U6B8 whole entry N186A) above, with D182A, A186N counted along it", "test": "Whole-cell recording of CRAC current of charge-neutralizing Orai mutants, block by Gd3+", "format": "cell-based", "conditions": "D184A Orai", "excerpt": "as §3, §1"}, "[6]": {"biological_target": "T4, E180D Orai mutant + Stim (Drosophila melanogaster, UniProt Q9U6B8, E178D)", "T4 construct": "A cDNA clone, pAc5.1/olf186-F, encoding full-length Drosophila olf186-F-RB; expressed in transfected cells; host or cells: Drosophila S2 cells (Invitrogen)", "T4 sequence (Q9U6B8 whole entry E178D)": "as the sequence (Q9U6B8 whole entry N186A) above, with E178D, A186N counted along it", "T4 sequence (P83094 24-570, further chain)": "as the sequence (P83094 24-570) above", "test": "Whole-cell recording of E180D Orai-induced CRAC current in S2 cells", "format": "cell-based", "conditions": "for effect of divalent cation on E180D Orai-induced current: 20 mM external divalent vs 2 mM Ca2+; for IC50: scaled to current in divalent-free solution", "excerpt": "as §3, §1, §2"}, "[7]": {"system": "Drosophila S2 cells", "test": "Single-cell ratiometric fura-2 [Ca2+]i imaging", "format": "cell-based", "conditions": "ionomycin in zero-Ca2+ solution, control cells", "protocol": "RNAi in Drosophila S2 cells. RNAi experiments were adapted from the protocols described by Worby et al. (2). Drosophila S2 cells (0.5×10^6) were seeded in T-25 flasks in 2 ml of complete S2 media. The next day, media was removed and replaced with 2 ml serum-free S2 media. 20 μg dsRNA was added and cells were incubated at room temperate for 45 min with gentle rocking. 4 ml S2 media was added and cells were incubated for 5 days at 24° C. Cells were then harvested and either plated for single cell Ca^2+ imaging and patch-clamp experiments or processed for RT-PCR analysis.\nSingle-cell [Ca2+]i imaging. Ratiometric [Ca2+]i imaging was performed as described, using solution recipes described in Table 3. Transfected cells were recognized by co-expressed enhanced green fluorescent protein (EGFP), using filters to avoid contamination of Fura-2 fluorescence by bleed-through of GFP fluorescence. Data were analysed with Metafluor software (Universal Imaging) and OriginPro 7.5 software (OriginLab) and are expressed as means ±SEM."}}, "note": "“Also recorded” adds a separate entry of the source.", "data": [{"compound": "C/C=C(/C)C(=O)O[C@H]1C(C)=C2[C@H]([C@@H]1OC(=O)CCCCCCC)[C@@](C)(OC(C)=O)C[C@H](OC(=O)CCC)[C@@]1(O)[C@H]2OC(=O)[C@@]1(C)O", "note": "[thapsigargin]", "values": [{"measurement": "Stim-Orai protein interaction (co-immunoprecipitation)", "setting": "[1]", "result": "dramatically increased"}, {"measurement": "CRAC current density", "setting": "[2]", "result": "−7.6±2.5", "unit": "pA/pF"}]}, {"compound": "[Gd+3]", "note": "[Gd^3+]", "values": [{"measurement": "potency of Gd3+ block", "setting": "[3]", "result": "to a lesser degree"}, {"measurement": "potency of Gd3+ block", "setting": "[4]", "result": "significantly reduced"}, {"measurement": "potency of Gd3+ block", "setting": "[5]", "result": "significantly reduced"}, {"measurement": "suppression of native and WT Orai-induced CRAC current", "setting": "[2]", "result": "very effectively suppresses"}, {"measurement": "effect on enhanced Ca2+ current", "setting": "[2]; 50 nM", "result": "blocked"}]}, {"compound": "O=P(O)(O)O[C@@H]1[C@H](O)[C@H](O)[C@@H](OP(=O)(O)O)[C@H](OP(=O)(O)O)[C@H]1O", "note": "[IP3, inositol 1,4,5-trisphosphate]", "values": [{"measurement": "CRAC current density", "setting": "[2]", "result": "−11.4±3.1", "unit": "pA/pF"}]}, {"compound": "NCCOB(c1ccccc1)c1ccccc1", "note": "[2-APB, 2-aminoethyldiphenyl borate]", "values": [{"measurement": "effect on Ca2+ (CRAC) current", "setting": "[2]; 5 μM", "result": "characteristic potentiation of current before blocking; also recorded: potentiated"}, {"measurement": "effect on Ca2+ (CRAC) current", "setting": "[2]; 20 μM", "result": "blocked; also recorded: inhibited"}, {"measurement": "time course of E180D outward CRAC current", "setting": "[6]; 5 μM", "result": "immediate decrease preceding potentiation"}, {"measurement": "time course of E180D outward CRAC current", "setting": "[6]; 20 μM", "result": "immediate increase preceding inhibition"}]}, {"compound": "[Ba+2]", "note": "[Ba^2+]", "values": [{"measurement": "effect of divalent cation on E180D Orai-induced current", "setting": "[6]", "result": "significantly increased the inward current while decreasing the outward current"}]}, {"compound": "[Mg+2]", "note": "[Mg^2+]", "values": [{"measurement": "effect of divalent cation on E180D Orai-induced current", "setting": "[6]", "result": "increased the current"}]}, {"compound": "C[C@H](CCC(=O)O)C[C@H](C)C[C@H](C)C(=O)/C=C(\\O)[C@H](C)C[C@H](C)C/C=C/[C@@H](C)[C@@H](O)[C@@H](C)[C@@H](O)C[C@@H]1CC[C@@](C)([C@H]2CC[C@@](C)([C@@H](C)O)O2)O1", "note": "[ionomycin]", "values": [{"measurement": "peak of Ca2+ release transient", "setting": "[7]", "result": "~200", "unit": "nM"}]}, {"compound": "[Sr+2]", "note": "[Sr^2+]", "values": [{"measurement": "effect of divalent cation on E180D Orai-induced current", "setting": "[6]", "result": "had little effect"}]}, {"compound": "[Ca+2]", "note": "[Ca^2+]", "values": [{"measurement": "effect of divalent cation on E180D Orai-induced current", "setting": "[6]", "result": "significantly decreased the outward current"}, {"measurement": "IC50", "setting": "[6]; IC50, half-blocking Ca2+ concentration for inward current, at −130 mV", "result": "48 ± 13", "unit": "µM"}, {"measurement": "IC50", "setting": "[6]; IC50, half-blocking Ca2+ concentration for outward current, at 90 mV", "result": "2050 ± 780", "unit": "µM"}]}]}
